Assay results: patent US20020048549A1, “Radioactive transition metal nitride heterocomplex” (priority 1996, published 2002)
Like-named read-outs stand apart in the source and are kept apart here.

Columns and labels:
[1] = Stability of the complex / its solution after preparation; type: physicochemical; settings: reaction solution after preparation
Experimental: In a mixture of 0.6 ml of ethanol and […] ( 1 mol/l) of an aqueous HCl solution were dissolved 5 mg of SDH and 1.5 mg of PNP, followed by adding thereto a physiologically acceptable ^99mTcO4^− solution ( 0.5 ml, 50 MBq). The resulting mixture was heated at 80° C. for 20 minutes and then cooled to 40° C., after which 0.25 ml of HCO3^−/CO3^2− buffer was added thereto to adjust the pH at about 8.0. Subsequently, a solution of 0.5 mg of βglu in 1.5 ml of water was added. The complex finally obtained was analyzed by […] and HPLC. […] The radiochemical purity of the final complex was higher than 95%. […]
In a mixture of 0.6 ml of ethanol and […] ( 1 mol/l) of an aqueous HCl solution were dissolved 5 mg of SDH and 1.5 mg of PNP, followed by adding thereto a physiologically acceptable ^99mTcO4 solution ( 0.5 ml, 50 MBq). […] The complex finally obtained was analyzed by HTLC and HPLC. […]
In a mixture of 0.6 ml of ethanol and 0.1 mg (1 mol/l) of an aqueous HCl solution were dissolved 5 mg of SDH and 1.5 mg of PNP, followed by adding thereto a physiologically acceptable ^99mTcO4^− solution (0.5 ml, 50 MBq). […] The complex finally obtained was analyzed by HTLC and HPLC. […]

[2] = Biodistribution of 99mTc(N)(X)(DTC)+ heterocomplexes in rats; type: in vivo, male Spraque-Dawley rats (SD rats)
Experimental: The biodistribution of a ^99mTc nitride heterocomplex represented by the general formula ^99mTc(N)(X)(Y) was investigated as follows: ^99mTc nitride heterocomplexes were synthesized using DTC as a bidentate ligand Y and each of the diphosphine compounds X described below, and the biodistribution in rats of each heterocomplex was investigated.
Before being injected into rats, the contents of the vial were diluted with phosphate buffer (0.1 mol/dm^3, pH=7.06) containing 10% Tween 80 ([…]). The complexes were stable in the solutions and in human plasma for at least 6 hours.
The biodistribution was measured using male Spraque-Dawley rats (SD rats) weighing 200 to 250 g. After 24 hours fasting, the rats were put under intraperitoneal anesthesia and given an injection in the jugular vein. Then, the organs were excised from the rats at different intervals of time, washed and then weighed. In addition, blood samples were collected and then weighed. The data on the biodistribution are expressed as the mean±significant difference of the percentage of radioactivity level per gram of the organ weight based on the dose of radioactivity, (% dose/g). The measurement was carried out using groups of 5 rats each.

In the case of CCN1CC[PH](c2ccccc2)(c2ccccc2)[99Tc]2(#[N])([O]C(=O)c3ccccc3[S]2)[PH](c2ccccc2)(c2ccccc2)CC1 [Example 3], the “stability of the complex / solution of the complex” value [1] was “stable”.
With CCON(CC)C1=[S+][99Tc]2(#[N])([S]1)[PH](c1ccccc1)(c1ccccc1)CCN(CC)CC[PH]2(c1ccccc1)c1ccccc1 [Example 4] the “stability of the complex / solution of the complex” value [1] was “stable”.
Work on COCCC[P]1(CCCOC)CCN(CCOC)CC[P](CCCOC)(CCCOC)[99Tc+]12(#[N])[NH]N(C)C(SC)=[S]2 [^99mTc(N)(PNP3)(DTC)^+] yielded a Bone % dose/g [2] of 0.198 ± 0.03 % dose/g, a Heart % dose/g [2] of 2.704 ± 0.03 % dose/g and a Liver % dose/g [2] of 1.5 ± 0.02 % dose/g. The Spleen % dose/g [2] was 1.686 ± 0.03 % dose/g, the Blood % dose/g ([2]; 0 min after injection) was 1.149 ± 0.04 % dose/g and the Brain % dose/g ([2]; 0 min after injection) was 0.096 ± 0.00 % dose/g. For the same compound, the Intestine % dose/g ([2]; 0 min after injection) was 2.578 ± 0.350 % dose/g, the Kidney % dose/g ([2]; 0 min after injection) was 8.289 ± 0.03 % dose/g and the Lung % dose/g ([2]; 0 min after injection) was 2.133 ± 0.03 % dose/g. The Muscle % dose/g ([2]; 0 min after injection) was 0.232 ± 0.07 % dose/g, the Stomach % dose/g ([2]; 0 min after injection) was 1.121 ± 0.01 % dose/g and the Blood % dose/g ([2]; 2 min after injection) was 0.421 ± 0.10 % dose/g. For the same compound, the Bone % dose/g ([2]; 2 min after injection) was 2.242 ± 0.02 % dose/g, the Brain % dose/g ([2]; 2 min after injection) was 0.035 ± 0.01 % dose/g and the Heart % dose/g ([2]; 2 min after injection) was 3.007 ± 0.16 % dose/g. It also gave an Intestine % dose/g ([2]; 2 min after injection) of 4.188 ± 0.60 % dose/g, a Kidney % dose/g ([2]; 2 min after injection) of 9.676 ± 0.620 % dose/g and a Liver % dose/g ([2]; 2 min after injection) of 2.778 ± 0.06 % dose/g. It also gave a Lung % dose/g ([2]; 2 min after injection) of 0.995 ± 0.17 % dose/g, a Muscle % dose/g ([2]; 2 min after injection) of 0.264 ± 0.09 % dose/g and a Spleen % dose/g ([2]; 2 min after injection) of 1.215 ± 0.1 % dose/g. It also gave a Stomach % dose/g ([2]; 2 min after injection) of 0.740 ± 0.02 % dose/g, a Blood % dose/g ([2]; 10 min after injection) of 0.147 ± 0.02 % dose/g and a Bone % dose/g ([2]; 10 min after injection) of 0.204 ± 0.00 % dose/g. For the same compound, the Brain % dose/g ([2]; 10 min after injection) was 0.019 ± 0.00 % dose/g, the Heart % dose/g ([2]; 10 min after injection) was 2.506 ± 0.10 % dose/g and the Intestine % dose/g ([2]; 10 min after injection) was 10.959 ± 1.64 % dose/g. For the same compound, the Kidney % dose/g ([2]; 10 min after injection) was 6.559 ± 0.928 % dose/g, the Liver % dose/g ([2]; 10 min after injection) was 1.719 ± 0.14 % dose/g and the Lung % dose/g ([2]; 10 min after injection) was 0.725 ± 0.104 % dose/g. For the same compound, the Muscle % dose/g ([2]; 10 min after injection) was 0.252 ± 0.01 % dose/g, the Spleen % dose/g ([2]; 10 min after injection) was 0.856 ± 0.12 % dose/g and the Stomach % dose/g ([2]; 10 min after injection) was 0.852 ± 0.118 % dose/g. The Blood % dose/g ([2]; 30 min after injection) was 0.098 ± 0.01 % dose/g, the Bone % dose/g ([2]; 30 min after injection) was 0.230 ± 0.04 % dose/g and the Brain % dose/g ([2]; 30 min after injection) was 0.012 ± 0.00 % dose/g. For the same compound, the Heart % dose/g ([2]; 30 min after injection) was 2.551 ± 0.10 % dose/g, the Intestine % dose/g ([2]; 30 min after injection) was 10.201 ± 1.28 % dose/g and the Kidney % dose/g ([2]; 30 min after injection) was 5.354 ± 1.00 % dose/g. The Liver % dose/g ([2]; 30 min after injection) was 0.732 ± 0.08 % dose/g, the Lung % dose/g ([2]; 30 min after injection) was 0.446 ± 0.00 % dose/g and the Muscle % dose/g ([2]; 30 min after injection) was 0.273 ± 0.05 % dose/g. It also gave a Spleen % dose/g ([2]; 30 min after injection) of 0.550 ± 0.06 % dose/g, a Stomach % dose/g ([2]; 30 min after injection) of 1.511 ± 0.39 % dose/g and a Blood % dose/g ([2]; 1 hr after injection) of 0.071 ± 0.00 % dose/g. It also gave a Bone % dose/g ([2]; 1 hr after injection) of 0.099 ± 0.00 % dose/g, a Brain % dose/g ([2]; 1 hr after injection) of 0.014 ± 0.00 % dose/g and a Heart % dose/g ([2]; 1 hr after injection) of 2.155 ± 0.29 % dose/g. It also gave an Intestine % dose/g ([2]; 1 hr after injection) of 5.447 ± 0.87 % dose/g, a Kidney % dose/g ([2]; 1 hr after injection) of 4.127 ± 0.178 % dose/g and a Liver % dose/g ([2]; 1 hr after injection) of 0.500 ± 0.01 % dose/g. For the same compound, the Lung % dose/g ([2]; 1 hr after injection) was 0.329 ± 0.05 % dose/g, the Muscle % dose/g ([2]; 1 hr after injection) was 0.236 ± 0.04 % dose/g and the Spleen % dose/g ([2]; 1 hr after injection) was 0.238 ± 0.02 % dose/g. The Stomach % dose/g ([2]; 1 hr after injection) was 0.892 ± 0.085 % dose/g, the Blood % dose/g ([2]; 2 hr after injection) was 0.049 ± 0.00 % dose/g and the Bone % dose/g ([2]; 2 hr after injection) was 0.121 ± 0.00 % dose/g. For the same compound, the Brain % dose/g ([2]; 2 hr after injection) was 0.009 ± 0.00 % dose/g, the Heart % dose/g ([2]; 2 hr after injection) was 2.721 ± 0.06 % dose/g and the Intestine % dose/g ([2]; 2 hr after injection) was 2.720 ± 0.11 % dose/g. It also gave a Kidney % dose/g ([2]; 2 hr after injection) of 3.139 ± 0.20 % dose/g, a Liver % dose/g ([2]; 2 hr after injection) of 0.164 ± 0.04 % dose/g and a Lung % dose/g ([2]; 2 hr after injection) of 0.312 ± 0.2 % dose/g. The Muscle % dose/g ([2]; 2 hr after injection) was 0.268 ± 0.88 % dose/g, the Spleen % dose/g ([2]; 2 hr after injection) was 0.300 ± 0.05 % dose/g and the Stomach % dose/g ([2]; 2 hr after injection) was 1.521 ± 0.50 % dose/g. It also gave a Blood % dose/g ([2]; 4 hr after injection) of 0.030 ± 0.00 % dose/g, a Bone % dose/g ([2]; 4 hr after injection) of 0.079 ± 0.01 % dose/g and a Brain % dose/g ([2]; 4 hr after injection) of 0.009 ± 0.00 % dose/g. For the same compound, the Heart % dose/g ([2]; 4 hr after injection) was 2.503 ± 0.13 % dose/g, the Intestine % dose/g ([2]; 4 hr after injection) was 1.810 ± 0.716 % dose/g and the Kidney % dose/g ([2]; 4 hr after injection) was 2.536 ± 0.12 % dose/g. The Liver % dose/g ([2]; 4 hr after injection) was 0.155 ± 0.00 % dose/g, the Lung % dose/g ([2]; 4 hr after injection) was 0.219 ± 0.01 % dose/g and the Muscle % dose/g ([2]; 4 hr after injection) was 0.245 ± 0.031 % dose/g. The Spleen % dose/g ([2]; 4 hr after injection) was 0.195 ± 0.02 % dose/g, the Stomach % dose/g ([2]; 4 hr after injection) was 0.485 ± 0.07 % dose/g and the “elimination from kidney and liver” value ([2]; rats) was “relatively rapidly eliminated”. For the same compound, the “washout from lung and blood” value ([2]; rats) was “rapidly washed out” and the accumulation in heart ([2]; rats, throughout the measurement) was “very large amount”.
